Assay results: patent publication EP4725948A1, “PYRROLO[2,3-D]PYRIMIDIN-4-AMINE DERIVATIVE AND USE THEREOF IN MEDICINE” (Haisco Pharmaceutical Group Co., Ltd., priority 2023, dated 2024)
pEC50: −log10 of the molar value.

Assays:
[1] = Pharmacokinetic test in rats (inhalation administration); details: for Lung AUC0-t/plasma AUC0-t / Lung AUC0-t / Lung Cmax: SD rats, single inhalation dose 0.03 mg/kg; for Lung AUC0-t / Lung Cmax: lung tissue
Procedure: Experimental objective: In this experiment, the test compound was administered as a single dose via inhalation to SD rats, and the concentrations of the test compound in rat plasma and lungs were determined to evaluate the pharmacokinetic characteristics and bioavailability of the test compound in the rats.
Experimental animals: Male SD rats, 180-200 g, purchased from Chengdu Dossy Experimental Animals Co., Ltd.
Experimental method: On the day of the experiment, SD rats were randomly assigned into 6 groups according to body weight (for each compound), with 2 rats in each group. The rats were fasted with water available for 12 to 16 hours one day before the administration, and were fed 4 hours after the administration.
Plasma sampling: before and after the administration, blood was taken from the orbits of the rats under isoflurane anaesthesia, and placed in an EDTAK2 centrifuge tube. Centrifugation was performed at 6000 rpm at 4°C for 10 min, and the plasma was collected.
Lung tissue sampling: Animals from each group were euthanised by CO2 inhalation at 0.25, 0.5, 1, 4, 7 and 24 hours after the administration. Then, the animal was dissected to collect lung tissue, which was rinsed with physiological saline, dried with filter paper, weighed in the balance, kept on wet ice and homogenised within 2 hours using a 6-fold volume (i.e., 6 mL per 1 g of tissue) of homogenisation buffer (50% methanol-water).
Before analysis and detection, all samples were stored at -60°C. The samples were analysed quantitatively by LC-MS/MS.

sGC protein = target: T1, sGC protein (Homo sapiens, UniProt Q02108+Q02153); assay: cGMP detection experiment in LNCap cells; type: cell-based; details: cGMP production in LNCap cells; 20 µM DETA-NO pre-incubation; relative to compound A
T1 construct: LNCap is a human prostate cancer cell line that expresses sGC protein; host or cells: LNCap (human prostate cancer cell line)
T1 sequence (Q02108 1-690): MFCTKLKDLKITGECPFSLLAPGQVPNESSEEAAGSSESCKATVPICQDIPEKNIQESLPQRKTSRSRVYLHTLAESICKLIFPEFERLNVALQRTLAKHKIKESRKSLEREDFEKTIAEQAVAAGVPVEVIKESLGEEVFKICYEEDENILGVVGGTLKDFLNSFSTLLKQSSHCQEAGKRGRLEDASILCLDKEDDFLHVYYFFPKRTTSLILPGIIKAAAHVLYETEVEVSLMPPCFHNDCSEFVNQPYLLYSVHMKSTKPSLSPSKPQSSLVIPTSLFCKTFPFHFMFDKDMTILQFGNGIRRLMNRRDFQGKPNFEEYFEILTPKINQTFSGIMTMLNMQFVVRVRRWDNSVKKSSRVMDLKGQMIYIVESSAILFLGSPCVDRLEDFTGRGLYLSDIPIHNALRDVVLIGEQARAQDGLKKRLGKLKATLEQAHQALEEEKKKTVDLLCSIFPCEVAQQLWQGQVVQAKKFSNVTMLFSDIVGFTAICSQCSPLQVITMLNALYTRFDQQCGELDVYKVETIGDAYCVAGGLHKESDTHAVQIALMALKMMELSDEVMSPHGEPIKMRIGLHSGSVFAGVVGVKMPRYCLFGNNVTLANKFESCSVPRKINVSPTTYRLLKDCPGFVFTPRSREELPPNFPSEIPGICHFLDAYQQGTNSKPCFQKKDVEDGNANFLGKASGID
T1 sequence (Q02153 1-619): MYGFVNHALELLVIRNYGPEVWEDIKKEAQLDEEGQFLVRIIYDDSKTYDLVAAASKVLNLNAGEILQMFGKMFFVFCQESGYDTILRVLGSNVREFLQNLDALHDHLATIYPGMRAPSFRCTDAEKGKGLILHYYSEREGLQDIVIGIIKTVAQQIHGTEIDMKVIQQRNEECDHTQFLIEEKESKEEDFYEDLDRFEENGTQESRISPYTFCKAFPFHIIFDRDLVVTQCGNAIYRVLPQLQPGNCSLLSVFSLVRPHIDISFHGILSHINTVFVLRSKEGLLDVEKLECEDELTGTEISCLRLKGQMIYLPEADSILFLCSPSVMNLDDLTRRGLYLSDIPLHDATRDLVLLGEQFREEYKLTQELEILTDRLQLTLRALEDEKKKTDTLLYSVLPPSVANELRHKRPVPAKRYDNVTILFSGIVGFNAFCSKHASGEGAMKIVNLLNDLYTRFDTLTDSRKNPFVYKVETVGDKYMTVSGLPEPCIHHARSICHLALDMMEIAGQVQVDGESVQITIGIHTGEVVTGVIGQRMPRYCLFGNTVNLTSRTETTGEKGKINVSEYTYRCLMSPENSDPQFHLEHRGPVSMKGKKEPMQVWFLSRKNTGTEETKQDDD
Procedure: LNCap is a human prostate cancer cell line that expresses sGC protein. […] On the day of the detection, the cells were reselected in assay buffer (EBSS assay buffer+[…] of MgCl2+10 mM HEPES+0.05% BSA) at a density of 2 × 10^5/mL. 0.5 mM IBMX was added to prevent cGMP degradation.
The cells were pre-incubated with 20 µM diethylenetriamine/nitric oxide (DETA-NO) at 37°C for 30 minutes, and then different concentrations of the compounds were added. The mixture was further incubated at room temperature for 1 h. After the incubation was completed, the reaction was terminated, and intracellular cGMP levels were measured according to the instructions for the CisBio kit (Cisbio, 62GM2PEC).

[2] = target: T2, soluble guanylate cyclase (sGC) (Homo sapiens, UniProt Q02108+Q02153); assay: In vitro detection experiment for soluble guanylate cyclase (sGC) activity (TR-FRET);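 also: enzyme reaction started with GTP and run for 60 min at 37°C, followed by a 60 min detection step at room temperature, with EC50 obtained by nonlinear curve fitting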
T2 sequence (Q02108 1-690): T1 sequence (Q02108 1-690)
T2 sequence (Q02153 1-619): T1 sequence (Q02153 1-619)
Procedure: First, 100 nL of the compounds at different concentrations were transferred to a 384-well reaction plate (Greiner, Cat. No. 784075) using Echo 655 (LABCYTE, Cat # 655), with the final DMSO concentration of 1% in the reaction mixture; 2 µL of sGC (ICE, Cat. No. S2304F-H07SH2) was added to a 384-well reaction plate, and the mixture was centrifuged at 1000 rpm for 1 min; and then 1 µL of DETA NONOate was added, and the mixture was incubated at 37°C for10 min. After the incubation was completed, 2 µL of GTP was added, and the mixture was centrifuged at 1000 rpm for 1 min and reacted at 37°C for 60 min. In the reaction system, the final concentrations of sGC, GTP, and DETA NONOate were 1.5 nM, 5 µM, and 100 µM, respectively. After the reaction was completed, 5 µL of the test mixture (PerkinElmer, Cat. No. 62GM2PEG) was added and incubated at room temperature for 60 min. The TR-FRET signal (Ratio: 665/620 nm) was read using a microplate reader (BMG, Cat. No. PHERAstar FSX). A nonlinear regression curve was fitted using GraphPad Prism software, and EC50 values were calculated. Compound A (Example 1 in WO 2010065275) was used as a positive reference compound.

[3] = AE frequency, riociguat group, cited from earlier work
[4] = 12-week PATENT-1 study (placebo 2%)

Q: Which results are given for `CC(C)(Cc1csc(C2(C)C(=O)Nc3nc(-n4nc(CCC(F)(F)C(F)(F)F)c5cc(Cl)ccc54)nc(N)c32)n1)C(=O)O` (single isomer, unassigned) [Compound 4-1]?
A: Lung AUC0-t/plasma AUC0-t [1]: 77.1; Lung AUC0-t [1]: 2462 ng·h/mL; Lung Cmax [1]: 2352 ng/mL; pEC50 (sGC protein): > 6.30

Q: With `CC(C)(Cc1csc(C2(C)C(=O)Nc3nc(-n4c(=O)n(Cc5ccccc5F)c5c(F)cccc54)nc(N)c32)n1)C(=O)O` (single isomer, unassigned) [Compound 15-1] as the molecule, how does the pEC50 (sGC protein) read?
A: > 6.30

Q: With `CC(C)(Cc1csc(C2(C)C(=O)Nc3nc(-n4nc(Cc5ccccc5F)c5cc(Cl)ccc54)nc(N)c32)n1)C(=O)O` (single isomer, unassigned) [Compound 32-1] as the molecule, how does the pEC50 (sGC protein) read?
A: > 6.30

Q: For `CC(C)(Cc1csc(C2(C)C(=O)Nc3nc(-n4nc(Cc5ccccc5F)c5ncc(F)cc54)nc(N)c32)n1)C(=O)O` (single isomer, unassigned) [Compound 35-1], which “Lung AUC0-t” value [1] is on record?
A: 5432 ng·h/mL

Q: What about the “Lung Cmax” value [1] of the same molecule?
A: 2545 ng/mL

Q: And the pEC50 (sGC protein)?
A: > 6.30

Q: With `CC(C)(Cc1csc(C2(C)C(=O)Nc3nc(-n4nc(Cc5ccccc5F)c5c(F)cccc54)nc(N)c32)n1)C(=O)O` (single isomer, unassigned) [Compound 41-1] as the molecule, how does the pEC50 (sGC protein) read?
A: > 6.30

Q: With `CC(C)(Cc1csc(C2(C)C(=O)Nc3nc(-n4nc(CCC(F)(F)C(F)(F)F)c5c(F)cccc54)nc(N)c32)n1)C(=O)O` (single isomer, unassigned) [Compound 43-1] as the molecule, how does the pEC50 (sGC protein) read?
A: > 6.30

Q: With `CC(C)(Cc1csc([C@]2(C)C(=O)Nc3nc(-n4c(=O)n(CCC(F)(F)C(F)(F)F)c5c(F)cccc54)nc(N)c32)n1)C(=O)O` [Compound 14-1] as the molecule, how does the pEC50 (sGC protein) read?
A: > 6.30

Q: Which “Lung AUC0-t/plasma AUC0-t” value [1] does the source give for `CC(C)(Cc1csc([C@]2(C)C(=O)Nc3nc(-n4nc(CCC(F)(F)C(F)(F)F)c5cc(F)ccc54)nc(N)c32)n1)C(=O)O` [Compound 17-1] here?
A: 48.4

Q: And the “Lung AUC0-t” value [1]?
A: 2021 ng·h/mL

Q: What about the “Lung Cmax” value [1] of the same molecule?
A: 1754 ng/mL

Q: What about the pEC50 (sGC protein) of the same molecule?
A: > 6.30

Q: With `CC(C)(Cc1csc([C@]2(C)C(=O)Nc3nc(-n4c(=O)n(CCC(F)(F)C(F)(F)F)c5cc(F)ccc54)nc(N)c32)n1)C(=O)O` [Compound 31-1] as the molecule, how does the “Lung AUC0-t/plasma AUC0-t” value [1] read?
A: 97.9

Q: And the “Lung AUC0-t” value [1]?
A: 608 ng·h/mL

Q: And the “Lung Cmax” value [1]?
A: 1183 ng/mL

Q: What about the pEC50 (sGC protein) of the same molecule?
A: > 6.30

Q: Which results are given for `CC(C)(Cc1csc([C@]2(C)C(=O)Nc3nc(-n4c(=O)n(Cc5ccccc5F)c5cc(F)ccc54)nc(N)c32)n1)C(=O)O` [Compound 38-1]?
A: Lung AUC0-t/plasma AUC0-t [1]: 83.6; Lung Cmax [1]: 1743 ng/mL

Q: Which “Lung AUC0-t/plasma AUC0-t” value [1] does the source give for `CC(C)(Cc1csc([C@]2(C)C(=O)Nc3nc(-c4nc(CCC(F)(F)C(F)(F)F)n5cc(F)ccc45)nc(N)c32)n1)C(=O)O` [Compound 45-1] here?
A: 43.4

Q: What about the “Lung AUC0-t” value [1] of the same molecule?
A: 4500 ng·h/mL

Q: What about the “Lung Cmax” value [1] of the same molecule?
A: 2846 ng/mL

Q: Which results are given for `CC(C)(Cc1csc([C@]2(C)C(=O)Nc3nc(-c4nn(CCC(F)(F)C(F)(F)F)c5ncccc45)nc(N)c32)n1)C(=O)O` [Control compound 1, reference compound]?
A: Lung AUC0-t [1]: 220 ng·h/mL; Lung Cmax [1]: 273 ng/mL; Kp ([1]; male, SD, rat, lung and plasma, inhaled or intranasal, 0.03 mg/kg): 29.1; pEC50 (sGC protein): 5.49

Q: With `CC(C)(Cc1coc(C2(C)C(=O)Nc3nc(-n4c(=O)n(CC5CCCCC5)c5c(F)cccc54)nc(N)c32)n1)C(=O)O` (centres unmarked) [Trifluoroacetate of compound 27] as the molecule, how does the pEC50 (sGC protein) read?
A: > 6.30

Q: What about the pEC50 [2] of the same molecule?
A: > 7.70

Q: With `COC(=O)N(C)c1c(N)nc(-c2nn(Cc3ccccc3F)c3ncccc23)nc1N` [riociguat, Riociguat] as the molecule, how does the constipation ([3]; 12-week PATENT-1 study (placebo 1%)) read?
A: 5%

Q: What about the anaemia [3, 4] of the same molecule?
A: 7%

Q: What about the gastrooesophageal reflux disease [3, 4] of the same molecule?
A: 5%

Q: What about the hypotension ([3]; 12-week PATENT-1 study (placebo 4%)) of the same molecule?
A: 10%

Q: What about the vomiting ([3]; 12-week PATENT-1 study (placebo 7%)) of the same molecule?
A: 10%

Q: And the diarrhoea ([3]; 12-week PATENT-1 study (placebo 8%))?
A: 12%

Q: What about the dizziness ([3]; 12-week PATENT-1 study (placebo 13%)) of the same molecule?
A: 20%
